# Test results as given in ChEMBL document CHEMBL2057166, “Discovery of novel hedgehog antagonists from cell-based screening: Isosteric modification of p38 bisamides as potent inhibitors of SMO” (Bioorg Med Chem Lett, 2012).
# Columns and labels:
# Type in all cases: ADME, organism-based
# [1] = AUC in CD-1 mouse at 10 mg/kg, po; set-up: dose 10 mg/kg, route oral; settings: plasma
# [2] = Half life in CD-1 mouse at 3 mg/kg, iv; set-up: dose 3 mg/kg, route intravenous; settings: in vivo
# [3] = Volume of distribution at steady state in CD-1 mouse at 3 mg/kg, iv and 10 mg/kg, po; settings: in vivo, read-out: Vdss
# [4] = Oral bioavailability in CD-1 mouse at 10 mg/kg; settings: in vivo
# [5] = Clearance in CD-1 mouse at 3 mg/kg, iv and 10 mg/kg, po; settings: in vivo
AUC [1] [ng·h/mL],half-life [2] [min],Vd [3] [L/kg],bioavailability [4] [%],clearance [5] [mL/min/kg],Structure (SMILES)
100,54,12,22,210,Cc1ccc(-c2ncc(C)n2C)cc1NC(=O)c1ccc(OCc2ccccn2)cc1
12500,60,0.5,83,8.3,Cc1ccc(-c2ncc[nH]2)cc1NC(=O)c1ccc(OCc2ccccn2)cc1
